Measured values as given in patent US20120100361A1, “ANTISEPTIC COMPOSITION FOR ENGINEERING WOOD PRODUCTION, AND ENGINEERING WOOD” (SDS BIOTECH K.K., priority 2009, published 2012).

Legend:
fungus cellar soil-bed [1] = experiment: Fungus cellar soil-bed test of preservative LVL (JIS K1571:2004); settings: 25° C., grade 0 sound condition to 5 out of shape due to the decay
Experimental: (§1) 1000 g of the phenol resin-based glue Deernol D-117 (manufactured by Oshika Corporation), 70 g of wheat flour and 100 g of calcium carbonate were mixed and well kneaded. A solution of each of the compounds of Example 1 and Comparative Example 1, 2 and 5 to 25 was added to the kneaded product so that the final concentrations of the compound in the wood become 150, 100, 50 and 25 g/m^3 and further kneaded. 18 g of the above kneaded product was applied onto each of the surface of glue line of the three Radiata pine veneer sheets having an area of 30 x 30 cm and thickness of 3 mm. After bonding the three sheets to each other, the sheets were subjected to cold pressing at room temperature for 20 minutes and the thermal pressure of 140° C. (10 kgf/cm^2) was applied to the sheets for two minutes to obtain the target LVL. Each of the prepared LVL was processed into the size of 20×20×9 mm to serve as a test sample.
The preservative LVL was prepared in the same manner in Preparation Example 3. Each of the prepared LVL was processed into the size of 9×9×100 mm to serve as a test sample.
(§2) The samples of the plywood and LVL prepared in Preparation Examples 4 and 5 were evaluated by the fungus cellar soil-bed test according to JIS K1571:2004. The weather resistance operation and the test method for the antiseptic effect were performed according to the above test method. The test was carried out for six months setting the test temperature to 25° C. (because the grade average of the decay damage of the non-treated test samples exceeded 2.5 in six months). […] The effect in the glue line treatment was actually investigated with respect to a number of existing antiseptics, and it was confirmed that only epoxyconazole is suitable for the glue line treatment at a low concentration.

Fomitopsis palustris [2] = experiment: Test for antiseptic effects of preservative plywood (JIS K1571:2004); type: cell-based; settings: plywood, urea melamine resin, Fomitopsis palustris
Experimental: (§3) 1000 g of urea melamine resin (PWP-60, manufactured by Oshika Corporation) was added to 180 g of wheat flour and fully kneaded to thereby obtain a kneaded product. 8 g of ammonium chloride was added as a hardening agent to the kneaded product, and a solution of each of the compounds of Example 1 and Comparative Example 1, 2 and 5 to 25 was further added thereto so that the final concentrations of the compound in the wood become 150, 100, 50 and 25 g/m^3 and kneaded. 18 g of the above kneaded product was applied onto each of the bonding plane of the three red lauan veneer sheets having an area of 30 x 30 cm and thickness of 0.85 mm/2.4 mm/0.85 mm. After bonding the three sheets to each other, the sheets were subjected to cold pressing at room temperature for 20 minutes and the thermal pressure of 120° C. (10 kgf/cm^2) was applied to the sheets for two minutes to obtain the target plywood. Each of the prepared plywood was processed into the size of 20×20×4.1 mm to serve as a test sample.
(§4) The samples of the plywood and LVL prepared in Preparation Examples 2 and 3 were evaluated by the test for antiseptic effects for the drug pressure treatment according to JIS K1571:2004. The weather resistance operation and the test method for the antiseptic effect were performed according to the above test method.

Trametes versicolor [3] = experiment: as above; type: cell-based; settings: plywood, urea melamine resin, Trametes versicolor
Experimental: as §3, §4

[4] = Test for miscibility with a phenol resin glue; type: physicochemical; parameters: key to Phenol resin status after 60 minutes: ∘: No change; x: Obvious increase in the viscosity was seen and it seems impossible to apply the composition onto the veneer sheet; settings: 10% (w/w) solution added to phenol resin glue Deernol D-117 kneaded product; viscosity change visually observed for 60 minutes
Experimental: The following compounds, which are known to have wood preservative activity, are dissolved in methyl ethylene triglycol to reach a concentration of 10% (w/w) to thereby obtain a solution of each of the compounds.
1000 g of phenol resin-based glue Deernol D-117 (manufactured by Oshika Corporation), 70 g of wheat flour and 100 g of calcium carbonate were mixed and well kneaded. Each of the solutions of Example 1 and Comparative Example 1 to 25 was added to 17 g of the kneaded product and mixed well together. The viscosity change of the glue was visually observed for 60 minutes. […] Although a number of documents listed as the prior art documents and the like teach that quaternary ammonium compounds can be applied to the glue line treatment, it is clear that those compounds have a problem for practical use (Comparative Examples 3 and 4). On the other hand, it was confirmed that the other compounds including that of Example has no problem from the viewpoint of compatibility.

Fomitopsis palustris [5] = experiment: Test for antiseptic effects of preservative LVL (JIS K1571:2004); type: cell-based; settings: phenol resin
Experimental: as §1, §4

Trametes versicolor [6] = experiment: as above; type: cell-based; settings: phenol resin
Experimental: as §1, §4

fungus cellar soil-bed [7] = experiment: Fungus cellar soil-bed test of preservative plywood (JIS K1571:2004); settings: plywood, six months, 25° C., grade 0 sound condition to 5 out of shape due to the decay
Experimental: as §3
The preservative plywood was prepared in the same manner in Preparation Example 2. Each of the prepared plywood was processed into the size of 8.9 x 8.9×100 mm to serve as a test sample.
as §2

CCCCCCCCn1sccc1=O [Comparative Example 24, N-octylisothiazolin-3-one]
Grade average of the decay damage of five test samples (fungus cellar soil-bed [1]; treated amount 25 g/m^3, six months): 3.0
Grade average of the decay damage of five test samples (fungus cellar soil-bed [1]; treated amount 50 g/m^3, six months): 3.4
Grade average of the decay damage of five test samples (fungus cellar soil-bed [1]; treated amount 100 g/m^3, six months): 3.0
Grade average of the decay damage of five test samples (fungus cellar soil-bed [1]; treated amount 150 g/m^3, six months): 3.2
average rate of decrease in weight (Fomitopsis palustris [2]; treated amount 25 g/m^3): X (The average rate of decrease in weight was 3% or more.)
average rate of decrease in weight (Fomitopsis palustris [2]; treated amount 50 g/m^3): X (The average rate of decrease in weight was 3% or more.)
average rate of decrease in weight (Fomitopsis palustris [2]; treated amount 100 g/m^3): X (The average rate of decrease in weight was 3% or more.)
average rate of decrease in weight (Fomitopsis palustris [2]; treated amount 150 g/m^3): X (The average rate of decrease in weight was 3% or more.)
average rate of decrease in weight (Trametes versicolor [3]; treated amount 25 g/m^3): X (The average rate of decrease in weight was 3% or more.)
average rate of decrease in weight (Trametes versicolor [3]; treated amount 50 g/m^3): X (The average rate of decrease in weight was 3% or more.)
average rate of decrease in weight (Trametes versicolor [3]; treated amount 100 g/m^3): X (The average rate of decrease in weight was 3% or more.)
average rate of decrease in weight (Trametes versicolor [3]; treated amount 150 g/m^3): X (The average rate of decrease in weight was 3% or more.)
Phenol resin status after 60 minutes [4]: ∘
average rate of decrease in weight (Fomitopsis palustris [5]; treated amount 25 g/m^3): X (The average rate of decrease in weight was 3% or more.)
average rate of decrease in weight (Fomitopsis palustris [5]; treated amount 50 g/m^3): X (The average rate of decrease in weight was 3% or more.)
average rate of decrease in weight (Fomitopsis palustris [5]; treated amount 100 g/m^3): X (The average rate of decrease in weight was 3% or more.)
average rate of decrease in weight (Fomitopsis palustris [5]; treated amount 150 g/m^3): X (The average rate of decrease in weight was 3% or more.)
average rate of decrease in weight (Trametes versicolor [6]; treated amount 25 g/m^3): X (The average rate of decrease in weight was 3% or more.)
average rate of decrease in weight (Trametes versicolor [6]; treated amount 50 g/m^3): X (The average rate of decrease in weight was 3% or more.)
average rate of decrease in weight (Trametes versicolor [6]; treated amount 100 g/m^3): X (The average rate of decrease in weight was 3% or more.)
average rate of decrease in weight (Trametes versicolor [6]; treated amount 150 g/m^3): X (The average rate of decrease in weight was 3% or more.)
Grade average of the decay damage of five test samples (fungus cellar soil-bed [7]; treated amount 25 g/m^3): 2.8
Grade average of the decay damage of five test samples (fungus cellar soil-bed [7]; treated amount 50 g/m^3): 2.8
Grade average of the decay damage of five test samples (fungus cellar soil-bed [7]; treated amount 100 g/m^3): 2.8
Grade average of the decay damage of five test samples (fungus cellar soil-bed [7]; treated amount 150 g/m^3): 2.8
